Source: BigSolDB 2.1

Cl.NC1CCSC1=O (racemic)
solubility (mole fraction)
Conditions | in 1,4-dioxane | in 2-butanone | in acetone | in acetonitrile | in dichloromethane | in ethanol | in ethyl acetate | in isopropanol | in methanol
283.15 K | – | 0.000125 | 0.000115 | 4.5e-05 | 6.4e-05 | 0.00319 | 0.000238 | 0.000521 | 0.0154
288.15 K | – | – | – | – | 0.000114 | – | – | – | –
293.15 K | 0.0005 | 0.00021 | 0.000202 | 8.7e-05 | 0.000171 | 0.00413 | 0.000281 | 0.000786 | 0.0187
298.15 K | – | – | – | – | 0.000262 | – | – | – | –
303.15 K | 0.000691 | 0.000307 | 0.00026 | 0.000135 | 0.000356 | 0.00509 | 0.000342 | 0.00116 | 0.0226
308.15 K | 0.000783 | – | – | – | – | – | – | – | –
313.15 K | 0.000872 | 0.000361 | 0.000331 | 0.000175 | – | 0.00627 | 0.000385 | 0.00154 | 0.0272
323.15 K | 0.000995 | 0.000431 | 0.000439 | 0.000212 | – | 0.00766 | 0.000458 | 0.00187 | 0.0326
